{"source": "ChEMBL document CHEMBL4184280", "about": "“Novel nicotinamide analog as inhibitor of nicotinamide N-methyltransferase” (Bioorg Med Chem Lett, 2018)", "key": {"[1]": {"target": "T1, Nicotinamide N-methyltransferase (Homo sapiens, UniProt P40261)", "T1 sequence (P40261 whole entry)": "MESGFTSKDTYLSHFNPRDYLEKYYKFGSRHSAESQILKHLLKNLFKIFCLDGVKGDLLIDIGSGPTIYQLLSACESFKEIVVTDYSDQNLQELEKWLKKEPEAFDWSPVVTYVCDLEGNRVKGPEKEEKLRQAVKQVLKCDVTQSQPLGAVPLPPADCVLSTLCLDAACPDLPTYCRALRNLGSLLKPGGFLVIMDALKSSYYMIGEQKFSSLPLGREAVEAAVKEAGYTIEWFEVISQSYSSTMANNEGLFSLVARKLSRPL"}, "[2]": {"test": "Metabolic stability in mouse liver microsomes assessed as parent compound remaining after 30 mins", "type": "ADME, microsome", "settings": "read-out: Stability"}, "[3]": {"test": "Oral bioavailability in C57Bl6/N mouse at 10 mg/kg", "type": "ADME, organism-based", "settings": "in vivo"}, "[4]": {"system": "Mus musculus", "test": "In vivo inhibition of NNMT in C57Bl6/N mouse assessed as reduction in plasma MNA level at 50 mg/kg, po measured after 2 hrs by LC-MS/MS analysis", "type": "functional"}, "[5]": {"test": "Cmax in C57Bl6/N mouse at 10 mg/kg, po", "type": "ADME, organism-based", "set-up": "dose 10 mg/kg, route oral", "settings": "in vivo"}, "[6]": {"test": "Half life in C57Bl6/N mouse at 1 mg/kg, iv", "type": "ADME, organism-based", "settings": "in vivo"}, "[7]": {"target": "Cytochrome P450 2C9 (Homo sapiens, UniProt P11712)", "sequence (P11712 whole entry)": "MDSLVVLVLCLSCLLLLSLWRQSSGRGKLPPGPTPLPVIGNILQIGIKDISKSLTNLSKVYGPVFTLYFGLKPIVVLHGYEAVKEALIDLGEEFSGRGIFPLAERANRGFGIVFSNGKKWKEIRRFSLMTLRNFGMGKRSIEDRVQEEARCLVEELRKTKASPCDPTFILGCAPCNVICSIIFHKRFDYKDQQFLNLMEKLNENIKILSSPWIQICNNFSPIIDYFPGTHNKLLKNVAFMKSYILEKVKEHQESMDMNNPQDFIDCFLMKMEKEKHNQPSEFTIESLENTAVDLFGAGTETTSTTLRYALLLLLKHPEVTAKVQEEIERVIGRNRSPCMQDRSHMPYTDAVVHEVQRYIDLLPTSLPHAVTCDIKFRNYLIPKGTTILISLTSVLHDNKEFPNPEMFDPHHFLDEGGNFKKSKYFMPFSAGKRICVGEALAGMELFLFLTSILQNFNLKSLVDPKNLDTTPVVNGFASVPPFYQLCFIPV", "test": "Inhibition of CYP2C9 (unknown origin)", "type": "ADME"}, "[8]": {"test": "Solubility of the compound", "type": "physicochemical"}, "[9]": {"test": "Clearance in C57Bl6/N mouse at 10 mg/kg, po or 1 mg/kg, iv", "type": "ADME, organism-based", "settings": "in vivo"}, "[10]": {"test": "AUC in C57Bl6/N mouse at 10 mg/kg, po", "type": "ADME, organism-based", "settings": "in vivo"}, "[11]": {"test": "Metabolic stability in rat liver microsomes assessed as parent compound remaining after 30 mins", "type": "ADME, microsome", "settings": "read-out: Stability"}, "[12]": {"test": "AUC in C57Bl6/N mouse at 1 mg/kg, iv", "type": "ADME, organism-based", "settings": "in vivo"}, "[13]": {"target": "T2, Nicotinamide N-methyltransferase (Mus musculus, UniProt O55239)", "T2 sequence (O55239 whole entry)": "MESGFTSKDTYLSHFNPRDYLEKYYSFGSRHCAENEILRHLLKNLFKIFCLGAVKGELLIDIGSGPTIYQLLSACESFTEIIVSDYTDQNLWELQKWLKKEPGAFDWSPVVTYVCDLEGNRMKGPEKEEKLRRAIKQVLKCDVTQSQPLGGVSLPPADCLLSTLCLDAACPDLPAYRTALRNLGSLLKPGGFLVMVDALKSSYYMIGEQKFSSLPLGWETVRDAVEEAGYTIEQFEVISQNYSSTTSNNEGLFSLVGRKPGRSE", "test": "Inhibition of mouse NNMT at 30 uM preincubated for 30 mins followed by nicotinamide substrate and SAM addition measured after 60 mins by fluorescence assay"}, "[14]": {"test": "Volume of distribution in C57Bl6/N mouse at 10 mg/kg, po or 1 mg/kg, iv", "type": "ADME, organism-based", "settings": "in vivo"}, "[15]": {"test": "Half life in C57Bl6/N mouse at 10 mg/kg, po", "type": "ADME, organism-based", "settings": "in vivo"}, "[16]": {"target": "Cytochrome P450 2C19 (Homo sapiens, UniProt P33261)", "sequence (P33261 whole entry)": "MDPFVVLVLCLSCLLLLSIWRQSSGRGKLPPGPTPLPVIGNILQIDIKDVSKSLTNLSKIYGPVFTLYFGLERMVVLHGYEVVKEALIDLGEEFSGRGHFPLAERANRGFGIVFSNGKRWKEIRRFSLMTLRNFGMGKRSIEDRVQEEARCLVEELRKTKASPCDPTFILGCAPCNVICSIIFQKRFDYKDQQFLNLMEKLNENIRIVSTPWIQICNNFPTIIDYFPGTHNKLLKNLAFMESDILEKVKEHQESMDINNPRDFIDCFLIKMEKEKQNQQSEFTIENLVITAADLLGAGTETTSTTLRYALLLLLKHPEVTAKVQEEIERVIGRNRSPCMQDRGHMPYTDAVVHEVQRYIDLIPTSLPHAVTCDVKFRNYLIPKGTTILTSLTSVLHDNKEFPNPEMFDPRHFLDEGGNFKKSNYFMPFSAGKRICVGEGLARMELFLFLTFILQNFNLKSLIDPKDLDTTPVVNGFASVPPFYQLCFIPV", "test": "Inhibition of CYP2C19 (unknown origin)", "type": "ADME"}, "[17]": {"target": "Cytochrome P450 2D6 (Homo sapiens, UniProt P10635)", "sequence (P10635 whole entry)": "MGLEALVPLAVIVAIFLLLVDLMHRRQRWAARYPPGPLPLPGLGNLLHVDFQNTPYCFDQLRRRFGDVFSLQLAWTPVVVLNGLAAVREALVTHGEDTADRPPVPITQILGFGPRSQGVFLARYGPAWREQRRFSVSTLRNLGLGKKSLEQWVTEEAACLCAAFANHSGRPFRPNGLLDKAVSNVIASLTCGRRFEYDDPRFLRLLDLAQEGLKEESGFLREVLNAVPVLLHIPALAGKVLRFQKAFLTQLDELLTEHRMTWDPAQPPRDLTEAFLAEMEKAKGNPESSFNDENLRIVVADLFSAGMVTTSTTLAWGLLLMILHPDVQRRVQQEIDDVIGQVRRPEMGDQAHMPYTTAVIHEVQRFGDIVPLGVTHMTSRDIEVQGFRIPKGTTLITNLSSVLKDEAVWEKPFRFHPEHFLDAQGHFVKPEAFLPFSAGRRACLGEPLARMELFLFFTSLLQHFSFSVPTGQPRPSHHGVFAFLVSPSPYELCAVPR", "test": "Inhibition of CYP2D6 (unknown origin)", "type": "ADME"}, "[18]": {"target": "T2, Nicotinamide N-methyltransferase", "test": "Inhibition of NNMT in mouse 3T3L1 cells assessed as reduction in MNA production after 24 hrs by LC-MS/MS analysis", "type": "cell-based"}, "[19]": {"test": "Metabolic stability in human liver microsomes assessed as parent compound remaining after 30 mins", "type": "ADME, microsome", "settings": "read-out: Stability"}, "[20]": {"test": "Cmax in C57Bl6/N mouse at 1 mg/kg, iv", "type": "ADME, organism-based", "set-up": "dose 1 mg/kg, route intravenous", "settings": "in vivo"}, "[21]": {"target": "Cytochrome P450 3A4 (Homo sapiens, UniProt P08684)", "sequence (P08684 whole entry)": "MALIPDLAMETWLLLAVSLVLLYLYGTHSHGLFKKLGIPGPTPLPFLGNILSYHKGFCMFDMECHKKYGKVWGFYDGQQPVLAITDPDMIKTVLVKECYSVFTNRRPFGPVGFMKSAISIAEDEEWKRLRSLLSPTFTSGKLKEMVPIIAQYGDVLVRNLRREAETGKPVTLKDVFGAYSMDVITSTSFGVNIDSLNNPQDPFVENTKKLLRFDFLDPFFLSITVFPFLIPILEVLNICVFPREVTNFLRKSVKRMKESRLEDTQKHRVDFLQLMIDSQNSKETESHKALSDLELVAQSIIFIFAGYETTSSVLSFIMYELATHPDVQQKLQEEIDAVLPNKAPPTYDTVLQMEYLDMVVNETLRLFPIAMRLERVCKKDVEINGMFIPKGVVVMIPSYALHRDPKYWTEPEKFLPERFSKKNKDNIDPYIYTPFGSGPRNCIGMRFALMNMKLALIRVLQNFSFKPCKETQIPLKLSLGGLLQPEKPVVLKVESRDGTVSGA", "test": "Inhibition of CYP3A4 (unknown origin)", "type": "ADME"}}, "data": [{"smiles": "Cn1cc(C(N)=O)ccc1=O", "values": [{"measurement": "IC50", "setting": "[1]", "result": "> 30", "unit": "µM"}]}, {"smiles": "COc1ccc(C(=N)N)cn1", "values": [{"measurement": "IC50", "setting": "[1]", "result": "> 30", "unit": "µM"}]}, {"smiles": "CN(C)c1ccc(C(N)=O)cn1", "values": [{"measurement": "IC50", "setting": "[1]", "result": "> 30", "unit": "µM"}]}, {"smiles": "[2H]C([2H])([2H])Oc1ccc(C(N)=O)cn1", "values": [{"measurement": "IC50", "setting": "[1]", "result": "0.922 to 1.61", "unit": "µM"}]}, {"smiles": "COc1ccc(NC(C)=O)cn1", "values": [{"measurement": "IC50", "setting": "[1]", "result": "> 30", "unit": "µM"}]}, {"smiles": "CCOc1nc(C)ccc1C(N)=O", "values": [{"measurement": "IC50", "setting": "[1]", "result": "> 30", "unit": "µM"}]}, {"smiles": "NC(=O)c1ccc(C(F)(F)F)nc1", "values": [{"measurement": "IC50", "setting": "[1]", "result": "> 30", "unit": "µM"}]}, {"smiles": "COc1ccc(C(N)=O)cn1", "values": [{"measurement": "IC50", "setting": "[1]", "result": "2.36 to 2.52", "unit": "µM"}]}, {"smiles": "COc1ccc(C(N)=O)cc1", "values": [{"measurement": "IC50", "setting": "[1]", "result": "> 30", "unit": "µM"}]}, {"smiles": "CCNC(=O)c1ccc(OC)nc1", "values": [{"measurement": "IC50", "setting": "[1]", "result": "> 30", "unit": "µM"}]}, {"smiles": "COc1cnc(C(N)=O)cn1", "values": [{"measurement": "IC50", "setting": "[1]", "result": "> 30", "unit": "µM"}]}, {"smiles": "CNc1ccc(C(N)=O)cn1", "values": [{"measurement": "remaining at 0.5 h", "setting": "[2]", "result": 69, "unit": "%"}, {"measurement": "bioavailability", "setting": "[3]", "result": 19, "unit": "%"}, {"measurement": "inhibition in vivo at 50 mg/kg", "setting": "[4]", "result": 80, "unit": "%"}, {"measurement": "Cmax", "setting": "[5]", "result": 1430, "unit": "ng/mL"}, {"measurement": "half-life", "setting": "[6]", "result": 0.8, "unit": "h"}, {"measurement": "IC50", "setting": "[7]", "result": "> 20", "unit": "µM"}, {"measurement": "solubility", "setting": "[8]", "result": 200, "unit": "µM"}, {"measurement": "clearance", "setting": "[9]", "result": 27.9, "unit": "mL/min/kg"}, {"measurement": "AUC", "setting": "[10]", "result": 1090, "unit": "ng·h/mL"}, {"measurement": "remaining at 0.5 h", "setting": "[11]", "result": 97, "unit": "%"}, {"measurement": "AUC", "setting": "[12]", "result": 511, "unit": "ng·h/mL"}, {"measurement": "IC50", "setting": "[13]", "result": 4.5, "unit": "µM"}, {"measurement": "Vd", "setting": "[14]", "result": 1.85, "unit": "L/kg"}, {"measurement": "half-life", "setting": "[15]", "result": 1.2, "unit": "h"}, {"measurement": "IC50", "setting": "[16]", "result": "> 20", "unit": "µM"}, {"measurement": "IC50", "setting": "[17]", "result": "> 20", "unit": "µM"}, {"measurement": "IC50", "setting": "[18]", "result": 2.1, "unit": "µM"}, {"measurement": "remaining at 0.5 h", "setting": "[19]", "result": 85, "unit": "%"}, {"measurement": "Cmax", "setting": "[20]", "result": 587, "unit": "ng/mL"}, {"measurement": "IC50", "setting": "[21]", "result": "> 20", "unit": "µM"}]}, {"smiles": "CSc1ccc(C(N)=O)cn1", "values": [{"measurement": "IC50", "setting": "[1]", "result": "> 30", "unit": "µM"}]}, {"smiles": "Cc1ccc(C(N)=O)cn1", "values": [{"measurement": "IC50", "setting": "[1]", "result": "> 10", "unit": "µM"}]}, {"smiles": "COc1ccc(C(N)=O)cc1F", "values": [{"measurement": "IC50", "setting": "[1]", "result": "> 30", "unit": "µM"}]}, {"smiles": "CCOc1cc(C)ncc1C(N)=O", "values": [{"measurement": "IC50", "setting": "[1]", "result": "> 30", "unit": "µM"}]}, {"smiles": "NC(=O)c1ccc(OC(F)F)nc1", "values": [{"measurement": "IC50", "setting": "[1]", "result": "> 30", "unit": "µM"}]}, {"smiles": "COc1ccc(-c2nnn[nH]2)cn1", "values": [{"measurement": "IC50", "setting": "[1]", "result": "> 30", "unit": "µM"}]}, {"smiles": "CCc1ccc(C(N)=O)cn1", "values": [{"measurement": "IC50", "setting": "[1]", "result": "> 30", "unit": "µM"}]}]}
